Test results taken from ChEMBL document CHEMBL2163249, “Exploration of natural compounds as sources of new bifunctional scaffolds targeting cholinesterases and beta amyloid aggregation: the case of chelerythrine” (Bioorg Med Chem, 2012).

How the values were obtained:
[1] = target: Acetylcholinesterase (Electrophorus electricus) (UniProt O42275); conditions: at 2 mg/mL
Description: Inhibition of electric eel AChE at 2 mg/ml by Ellman's method

[2] = target: Cholinesterase (Equus caballus) (UniProt P81908); conditions: at 2 mg/mL
Cholinesterase (Equus caballus), sequence (P81908 whole entry): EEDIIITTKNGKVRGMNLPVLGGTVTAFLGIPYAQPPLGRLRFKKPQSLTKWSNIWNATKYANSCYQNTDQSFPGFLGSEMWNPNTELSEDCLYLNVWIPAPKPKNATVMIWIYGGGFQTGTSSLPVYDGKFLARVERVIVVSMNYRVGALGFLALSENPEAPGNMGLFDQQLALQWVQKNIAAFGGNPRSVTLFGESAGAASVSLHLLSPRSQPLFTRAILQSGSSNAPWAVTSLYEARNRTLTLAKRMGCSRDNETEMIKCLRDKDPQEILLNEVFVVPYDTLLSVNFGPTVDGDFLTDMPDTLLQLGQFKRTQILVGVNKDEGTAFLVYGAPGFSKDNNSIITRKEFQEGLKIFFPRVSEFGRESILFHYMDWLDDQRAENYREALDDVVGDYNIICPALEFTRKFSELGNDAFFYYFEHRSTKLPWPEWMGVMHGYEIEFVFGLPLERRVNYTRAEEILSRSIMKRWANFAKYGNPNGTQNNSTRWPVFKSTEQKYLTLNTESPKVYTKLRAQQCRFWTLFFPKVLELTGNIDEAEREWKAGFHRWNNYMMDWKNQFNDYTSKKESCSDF
Description: Inhibition of horse BChE at 2 mg/ml by Ellman's method

Acetylcholinesterase (Electrophorus electricus), sequence (O42275 24-633 limits assumed): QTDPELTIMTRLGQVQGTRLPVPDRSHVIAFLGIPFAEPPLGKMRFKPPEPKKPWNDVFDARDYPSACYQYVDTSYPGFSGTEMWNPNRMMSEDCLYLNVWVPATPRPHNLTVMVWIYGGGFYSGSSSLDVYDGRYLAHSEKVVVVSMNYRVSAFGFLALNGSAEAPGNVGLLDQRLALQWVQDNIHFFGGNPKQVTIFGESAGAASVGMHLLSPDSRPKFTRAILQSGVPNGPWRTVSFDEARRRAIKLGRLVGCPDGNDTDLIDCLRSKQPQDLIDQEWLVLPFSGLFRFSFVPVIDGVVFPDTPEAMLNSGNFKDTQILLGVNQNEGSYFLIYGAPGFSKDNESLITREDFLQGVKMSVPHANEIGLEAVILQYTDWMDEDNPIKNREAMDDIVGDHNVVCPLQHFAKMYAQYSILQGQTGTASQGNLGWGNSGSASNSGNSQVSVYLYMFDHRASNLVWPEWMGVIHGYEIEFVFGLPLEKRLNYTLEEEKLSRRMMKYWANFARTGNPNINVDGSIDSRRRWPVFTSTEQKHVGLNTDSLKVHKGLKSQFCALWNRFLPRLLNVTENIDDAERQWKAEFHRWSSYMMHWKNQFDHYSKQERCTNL

Structure (SMILES) | inhibition [1] [%] | inhibition [2] [%]
CCCCC[C@H](O)/C=C/[C@H]1[C@H](O)CC(=O)[C@@H]1CCCCCCC(=O)O | 16.6 | -1.69
CC[C@H]1CC[C@@]2(C)CN(CC)[C@@H]3[C@@H]4[C@@H](O)[C@H]2[C@@]13[C@@H]1C[C@@H]2CC[C@@]4(O)[C@H]1C(=O)O2 | 22.5 | -3.58
Cn1cnc2c1c(=O)[nH]c(=O)n2C | 39.4 | 3.88
CC(=O)C1=C(O)C=C2Oc3c(C(C)=O)c(O)c(C)c(O)c3[C@@]2(C)C1=O | 2.06 | 4.28
C/C=C1\[C@H]2C=C(C)C[C@]1(N)c1ccc(=O)[nH]c1C2 | 97.3 | 11.8
CC1(C)CCC[C@](C)([C@H]2CC[C@]3(C)[C@@H]2[C@H](O)C[C@@H]2[C@@]4(C)CC[C@H](O)C(C)(C)[C@@H]4CC[C@]23C)O1 | 7.82 | 12.1
O=c1cc(-c2ccc(O)c(O)c2)oc2cc(O)c([C@@H]3O[C@H](CO)[C@@H](O)[C@H](O)[C@H]3O)c(O)c12 | 23.9 | -4.72
C/C1=C/CCC(C)(O)/C=C\C(C(C)C)C(OC(=O)c2ccc(O)cc2)C1 (configuration not stated) | 23.7 | -0.77
COC1=C[C@@H](C)[C@@H]2C[C@H]3OC(=O)C[C@H]4C(C)=C(OC)C(=O)[C@H]([C@@]2(C)C1=O)[C@@]34C | 24.7 | 4.69
COc1cc(=O)oc(/C=C/C=C/C=C/C(C)=C/[C@@]2(C)O[C@H](C)[C@](C)(O)[C@H]2O)c1C | 27.1 | 16.6
O=C1Cc2c([nH]c3ccc(Br)cc23)-c2ccccc2N1 | -7.55 | -1
O=C1C[C@@H](c2ccccc2)Oc2cc(O)cc(O)c21 | 27.3 | 1.45
CN1[C@H]2CC(=O)C[C@@H]1C(O)C2 (some centres not stated) | -7.3 | -3.92
O=C1c2cccc(O)c2C(=O)c2c(O)cc(CO)cc21 | 14.6 | -0.88
C[C@H]1CC[C@]2(NC1)O[C@H]1C[C@H]3[C@@H]4CC[C@H]5C[C@@H](O)CC[C@]5(C)[C@H]4CC[C@]3(C)[C@H]1[C@@H]2C | 11.4 | 6.89
C[C@@H]1Cc2c(Cl)cc(C(=O)N[C@@H](Cc3ccccc3)C(=O)O)c(O)c2C(=O)O1 | -6.4 | 8.75
C[C@H]1[C@H](OC(=O)CCC(=O)O)O[C@@H]2O[C@@]3(C)CC[C@H]4[C@H](C)CC[C@@H]1[C@@]24OO3 | -5.55 | 4.77
C[C@@H]1O[C@@H](O[C@H]2C[C@@H](O)[C@]3(CO)[C@H]4[C@H](O)C[C@]5(C)[C@@H](C6=CC(=O)OC6)CC[C@]5(O)[C@@H]4CC[C@]3(O)C2)[C@H](O)[C@H](O)[C@H]1O | -3.72 | 5.11
C=C(C)[C@@H]1CC[C@]2(CO)CC[C@]3(C)[C@H](CC[C@@H]4[C@@]5(C)CC[C@H](O)C(C)(C)[C@@H]5CC[C@]43C)[C@@H]12 | 7.09 | 0.47
CCCCCCCCCCC1=C(C)C(=O)C(OC)=C(OC)C1=O | 21.8 | 0.01
CC[C@]12CCCN3CCc4c(n(c5ccccc45)[C@@](O)(C(=O)OC)C1)[C@@H]32 | 7.29 | 3.22
C1CCN2C[C@@H]3C[C@@H](CN4CCCC[C@@H]34)[C@H]2C1 | 4.72 | 5.31

Structure (SMILES) | inhibition [1] [%] | inhibition [2] [%]
CC(C)C[C@H]1C(=O)N2CCC[C@H]2[C@]2(O)O[C@](NC(=O)[C@@H]3C=C4c5cccc6[nH]c(Br)c(c56)C[C@H]4N(C)C3)(C(C)C)C(=O)N12 | -0.33 | 9.94
CO[C@H]1C=C2CCN(C)[C@H]2[C@@H]2c3cc4c(cc3C(=O)O[C@@H]21)OCO4 | 25.8 | -2.26
CC[C@@]1(O)C(=O)OCc2c1cc1n(c2=O)Cc2cc3ccccc3nc2-1 | 14.1 | 3.9
CC(C)=CCC/C(C)=C/COc1ccc2ccc(=O)oc2c1 | -3.79 | 1.5
COc1ccc(-c2oc3cc(O)cc(O)c3c(=O)c2O)cc1O | 25.9 | 3.18
CC[C@@H]1C(=O)OC[C@@H]1Cc1cncn1C | 20 | 1.99
C[C@@H]1C[C@H]2O[C@@H]2/C=C\C=C\C(=O)Cc2c(Cl)c(O)cc(O)c2C(=O)O1 | 17.4 | -1.22
C=CCc1ccc(O)c(-c2ccc(O)c(CC=C)c2)c1 | -3.48 | 7.62
C[C@@H]1O[C@@H](OC[C@H]2O[C@@H](Oc3cc(O)c4c(=O)cc(-c5ccc(O)cc5)oc4c3)[C@H](O)[C@@H](O)[C@@H]2O)[C@H](O)[C@H](O)[C@H]1O | 23 | -5.05
COc1cc(-c2oc3cc(O)ccc3c(=O)c2O)ccc1O | 3.26 | 12.8
C/C=C(/C)C(=O)O[C@H]1C(C)=C2[C@H]([C@@H]1OC(=O)CCCCCCC)[C@@](C)(OC(C)=O)C[C@H](OC(=O)CCC)[C@@]1(O)[C@H]2OC(=O)[C@@]1(C)O | 9.89 | 0.82
OC[C@H]1O[C@@H](Oc2ccc(O)cc2)[C@H](O)[C@@H](O)[C@@H]1O | 9.16 | 6.63
COc1ccc(-c2cc(=O)c3c(OC)c(OC)c(OC)cc3o2)cc1OC | 29.6 | 17.1
C[C@H]1CCC/C=C/[C@@H]2C[C@H](O)C[C@H]2[C@H](O)/C=C/C(=O)O1 | -3.21 | 5.24
CCCCCCCCCCC[C@@H](C[C@@H]1OC(=O)[C@H]1CCCCCC)OC(=O)[C@H](CC(C)C)NC=O | -6.52 | 7.43
Cc1c(C(=O)O)c(O)cc2c1C(=O)c1c(O)c([C@@H]3O[C@H](CO)[C@@H](O)[C@H](O)[C@H]3O)c(O)c(O)c1C2=O | 21.5 | -1.98
CCOC(=O)C1=C[C@]2(CC)CCCN3CCc4c(n1c1ccccc41)[C@@H]32 | 12.3 | 29.1
C=C[C@@](C)(/C=C/c1ccc(O)cc1)CCC=C(C)C | -7.92 | 13.4
CN1[C@@H](CC(=O)c2ccccc2)CCC[C@H]1C[C@H](O)c1ccccc1 | -0.17 | 30.4
COc1cc2c(c(OC)c1OC)-c1c(cc3c(c1O)OCO3)C[C@H](C)[C@](C)(O)[C@H]2OC(=O)c1ccccc1 | 5.31 | -0.32
COc1ccc(C[C@H](N)C(=O)N[C@H]2[C@@H](O)[C@H](n3cnc4c(N(C)C)ncnc43)O[C@@H]2CO)cc1 | -7.92 | -9.98
COc1cc2c(cc1OC)[C@H](C)NCC2 | -3.39 | -4.57

Structure (SMILES) | inhibition [1] [%] | inhibition [2] [%]
O=c1cc(-c2ccccc2)oc2cc(O)c(O)c(O)c12 | -3.74 | 15
COc1ccc2c(c1OC)C(=O)OC2C1c2c(cc3c(c2OC)OCO3)CCN1C (racemic) | -5.54 | 3.34
CC1=CC(=O)C2=C(C)C[C@H](O)[C@@H]3[C@H](OC(=O)[C@H]3C)[C@@H]12 | 29.5 | 2.68
COc1ccc(-c2cc(=O)c3ccc(O)cc3o2)cc1 | 30.6 | 6.46
C[C@@H]1O[C@@H](O[C@H]2[C@H](Oc3cc(O)c4c(=O)cc(-c5ccc(O)cc5)oc4c3)O[C@H](CO)[C@@H](O)[C@@H]2O)[C@H](O)[C@H](O)[C@H]1O | 27.2 | -2.37
CC[C@@]1(O)C(=O)OCc2c1cc1n(c2=O)Cc2cc3cc(O)ccc3nc2-1 | -5.24 | 6.63
COc1ccc2cc1Oc1ccc(cc1)C[C@H]1c3c(cc4c(c3Oc3cc5c(cc3OC)CCN(C)[C@@H]5C2)OCO4)CCN1C | 8.59 | 40.6
C/C=C(\C)C(=O)O[C@H]1CC(C)=CC(=O)[C@@]2(C)CC[C@@](O)(C(C)C)[C@H]12 | 16.6 | -1.66
CCCCC[C@H](O)CC(=O)CCc1ccc(O)c(OC)c1 | 1.06 | -2.06
OC[C@H]1O[C@@H](O[C@@H]2OC=C[C@H]3[C@H](O)[C@@H]4O[C@]4(CO)[C@@H]23)[C@H](O)[C@@H](O)[C@@H]1O | 11.3 | -5.36
CC[C@H](C)/C=C(C)/C=C/C1=CC2=C(Cl)C(=O)[C@](C)(OC(C)=O)C(=O)C2=CO1 | 3.54 | 6.21
CCn1cc(C(=O)O)c(=O)c2ccc(C)nc21 | 0.82 | -8.73
CCC1=C[C@@H]2CN(C1)Cc1c([nH]c3ccccc13)[C@@](C(=O)OC)(c1cc3c(cc1OC)N(C)[C@H]1[C@@](O)(C(=O)OC)[C@H](OC(C)=O)[C@]4(CC)C=CCN5CC[C@]31[C@@H]54)C2 | -0.32 | 12.2
C[C@@H]1O[C@@H](O[C@H]2[C@H](Oc3cc(O)c4c(c3)O[C@H](c3ccc(O)cc3)CC4=O)O[C@H](CO)[C@@H](O)[C@@H]2O)[C@H](O)[C@H](O)[C@H]1O | -3.38 | -5.49
C=C[C@H]1CN2CC[C@H]1C[C@H]2[C@H](O)c1ccnc2ccc(OC)cc12 | 15.8 | 24.7
O=c1c(O)c(-c2cc(O)c(O)c(O)c2)oc2cc(O)ccc12 | 15.7 | -7.22
CO[C@H](C(=O)[C@@H](O)[C@@H](C)O)[C@@H]1Cc2cc3cc(O[C@H]4C[C@@H](O[C@H]5C[C@@H](O)[C@H](O)[C@@H](C)O5)[C@@H](O)[C@@H](C)O4)c(C)c(O)c3c(O)c2C(=O)[C@H]1O[C@H]1C[C@@H](O[C@H]2C[C@@H](O[C@H]3C[C@](C)(O)[C@H](O)[C@@H](C)O3)[C@H](O)[C@@H](C)O2)[C@H](O)[C@@H](O)O1 | -3.51 | 6.61
O=c1oc2ccccc2c(O)c1Cc1c(O)c2ccccc2oc1=O | 12.3 | 5.48
CC(C)=CC[C@@H](OC(=O)C=C(C)C)C1=CC(=O)c2c(O)ccc(O)c2C1=O | 22.8 | 6.03
COc1cc2c(c(OC)c1OC)-c1ccc(OC)c(=O)cc1[C@@H](NC=O)CC2 | 23.9 | -0.59
CN[C@@H]1[C@H](O)[C@H](NC)[C@H]2O[C@@]3(O)C(=O)C[C@@H](C)O[C@H]3O[C@@H]2[C@H]1O | 15 | -9.67
COc1cc(C(=O)O[C@H]2C/C(C)=C/CC/C(C)=C/[C@H](O)[C@@H]2C(C)C)ccc1O | 23.6 | 3.49
